Test results: patent US20190351019A1, “STEROID ADMINISTRATION AND IMMUNOTHERAPY” (Intrexon Corporation, priority 2016, published 2019)

Test: Infusion of CAR-T cells followed by prednisone in a B-ALL patient: GVHD course and blood counts (case report)
Format: in vivo, human
Details: about 1 mg/kg starting day 14; on day 18 (or Day 48 since administration of CAR-T cells); dose then reduced to about 0.5 mg/kg
Experimental: A person was diagnosed with B-cell acute lymphoblastic leukemia (B-ALL). […] Multiple salvage therapies were given. POMP maintenance therapy was subsequently started. The patient further developed graft-versus-host disease GVHD and was treated with prednisone and tacrolimus. Additional radiation therapy (XRT), immunotherapy, hyperCAVD and O-EPOCH were further administered to the patient. Further, lymphodepletion was induced in the patient with cyclophosphamide at 500 mg/m^2 and fludarabine at 30 mg/m^2 for 3 days. Following lymphodepletion, 10^6 CAR-T cells/kg were infused into the patient on day 0. […] About 1 mg/kg of prednisone was administered starting day 14. […] White blood cell count (WBC) was 2.7 and absolute lymphocyte count (ALC) was 200.

C[C@]12C=CC(=O)C=C1CC[C@@H]1[C@@H]2C(=O)C[C@@]2(C)[C@H]1CC[C@]2(O)C(=O)CO [prednisone]
outcome of GVHD under prednisone: GVHD was resolved
